From patent US9169254B2, “Spiroimidazolone derivative” (Chugai Seiyaku Kabushiki Kaisha, priority 2009, dated 2015)

These compounds were tested against T1, human PTH1 receptor (Homo sapiens, UniProt Q03431) (assay: In vitro cAMP signal activity in HKRK-B7 cells (LLC-PK1 cells overexpressing the human PTH1 receptor)). Conditions: HKRK-B7 cells; compound at 1×10^−3 M; cAMP produced as percentage of that produced by hPTH(1-34) at 100 nM.
T1 sequence (Q03431 27-593): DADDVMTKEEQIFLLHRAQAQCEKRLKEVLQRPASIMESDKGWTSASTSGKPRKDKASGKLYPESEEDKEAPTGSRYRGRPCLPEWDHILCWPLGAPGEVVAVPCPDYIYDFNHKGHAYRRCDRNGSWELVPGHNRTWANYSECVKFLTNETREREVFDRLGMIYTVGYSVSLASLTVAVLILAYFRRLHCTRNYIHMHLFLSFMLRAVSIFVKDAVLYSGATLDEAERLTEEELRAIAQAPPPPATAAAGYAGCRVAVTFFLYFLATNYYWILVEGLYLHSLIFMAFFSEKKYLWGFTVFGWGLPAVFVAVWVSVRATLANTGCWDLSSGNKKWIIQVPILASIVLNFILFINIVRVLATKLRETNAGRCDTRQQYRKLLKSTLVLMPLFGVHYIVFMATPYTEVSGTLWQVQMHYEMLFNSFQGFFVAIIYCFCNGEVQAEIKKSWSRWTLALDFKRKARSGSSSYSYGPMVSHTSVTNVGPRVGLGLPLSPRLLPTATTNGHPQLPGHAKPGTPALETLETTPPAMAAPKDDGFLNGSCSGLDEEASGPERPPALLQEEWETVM
Format: cell-based

In order of falling “cAMP production activity (%)” value:
1. CCCOCCCCCC1=NC2(CCN([S@TB18](=O)(=O)/C=C/c3c(C)cc(N(C)C(N)=O)cc3C)CC2)C(=O)N1 [Compound 1124, 1-(3,5-dimethyl-4-{(E)-2-[4-oxo-2-(5-propoxy-pentyl)-1,3,8-triaza-spiro[4.5]dec-1-ene-8-sulfonyl]-vinyl}-phenyl)-1-methyl-urea]  119%
2. Cc1cc(N(C(N)=O)C(C)C)cc(C)c1CCS(=O)(=O)N1CCC2(CC1)N=C(C1CCC(C)CC1)NC2=O (stereo not drawn) [Compound 828, 1-(3,5-dimethyl-4-{2-[2-(4-methyl-cyclohexyl)-4-oxo-1,3,8-triaza-spiro[4.5]dec-1-ene-8-sulfonyl]-ethyl}-phenyl)-1-isopropyl-urea]  92%
3. Cc1cc(C(=O)N2CCC(O)(CF)CC2)cc(C)c1/C=C/S(=O)(=O)N1CCC2(CC1)N=C(C1CCC(C)CC1)NC2=O (stereo not drawn) [Compound 1000, 8-{(E)-2-[4-(4-fluoromethyl-4-hydroxy-piperidine-1-carbonyl)-2,6-dimethyl-phenyl]-ethenesulfonyl}-2-(4-methyl-cyclohexyl)-1,3,8-triaza-spiro[4.5]dec-1-en-4-one]  86%
4. Cc1cc(S(=O)(=O)NCCN(C)C)ccc1CCS(=O)(=O)N1CCC2(CC1)N=C(C1CCCCC1)NC2=O [Compound 844, 4-[2-(2-cyclohexyl-4-oxo-1,3,8-triaza-spiro[4.5]dec-1-ene-8-sulfonyl)-ethyl]-N-(2-dimethylamino-ethyl)-3-methyl-benzenesulfonamide]  86%
5. Cc1cc(NC2=NCCS2)cc(C)c1/C=C/S(=O)(=O)N1CCC2(CC1)N=C(C1CCCCC1)NC2=O [Compound 738, 2-Cyclohexyl-8-{(E)-2-[4-(4,5-dihydro-thiazol-2-ylamino)-2,6-dimethyl-phenyl]-ethenesulfonyl}-1,3,8-triaza-spiro[4.5]dec-1-en-4-one]  79%
6. Cc1cc(C(=O)N2CCC3(CC2)COC3)cc(C)c1CCS(=O)(=O)N1CCC2(CC1)N=C(c1ccc(F)c(C(F)(F)F)c1)NC2=O [Compound 804, 8-{2-[2,6-dimethyl-4-(2-oxa-7-aza-spiro[3.5]nonane-7-carbonyl)-phenyl]-ethanesulfonyl}-2-(4-fluoro-3-trifluoromethyl-phenyl)-1,3,8-triaza-spiro[4.5]dec-1-en-4-one]  78%
7. Cc1cc(CCS(=O)(=O)N2CCC3(CC2)N=C(C2CCC(C)CC2)NC3=O)cc(C)c1N1C(=O)CNC1=O (stereo not drawn) [Compound 749, 3-(2,6-dimethyl-4-{2-[2-(4-methyl-cyclohexyl)-4-oxo-1,3,8-triaza-spiro[4.5]dec-1-ene-8-sulfonyl]-ethyl}-phenyl)-imidazolidine-2,4-dione]  77%
8. Cc1cc(C(=O)N2CCC(C)(O)CC2)cc(C)c1/C=C/S(=O)(=O)N1CCC2(CC1)N=C(c1ccc(OCC(F)(F)C(F)F)c(C(F)(F)F)c1)NC2=O [Compound 1199, 8-{(E)-2-[4-(4-hydroxy-4-methyl-piperidine-1-carbonyl)-2,6-dimethyl-phenyl]-ethenesulfonyl}-2-[4-(2,2,3,3-tetrafluoro-propoxy)-3-trifluoromethyl-phenyl]-1,3,8-triaza-spiro[4.5]dec-1-en-4-one]  77%
9. Cc1cc(N(C)C(N)=O)cc(C)c1/C=C/S(=O)(=O)N1CCC2(CC1)N=C(CCCCCCCCCCCN)NC2=O [Compound 1315, 1-(4-{(E)-2-[2-(11-Amino-undecyl)-4-oxo-1,3,8-triaza-spiro[4.5]dec-1-ene-8-sulfonyl]-vinyl}-3,5-dimethyl-phenyl)-1-methyl-urea]  76%
10. Cc1cc(N(C)C(N)=O)ccc1CCS(=O)(=O)N1CCC2(CC1)N=C(c1cccc(OC(F)(F)F)c1)NC2=O [Compound 301, 1-methyl-1-(3-methyl-4-{2-[4-oxo-2-(3-trifluoromethoxy-phenyl)-1,3,8-triaza-spiro[4.5]dec-1-ene-8-sulfonyl]-ethyl}-phenyl)-urea]  72%
11. Cc1cc(C(=O)N2CCCO2)cc(C)c1/C=C/S(=O)(=O)N1CCC2(CC1)N=C(C1CCC(C)CC1)NC2=O (stereo not drawn) [Compound 1001, 8-{(E)-2-[4-(isoxazolidine-2-carbonyl)-2,6-dimethyl-phenyl]-ethenesulfonyl}-2-(4-methyl-cyclohexyl)-1,3,8-triaza-spiro[4.5]dec-1-en-4-one]  64%
12. Cc1cc(C(=O)N(C)C)ccc1CCS(=O)(=O)N1CCC2(CC1)N=C(c1cccc(F)c1)NC2=O [Compound 109, 4-{2-[2-(3-fluoro-phenyl)-4-oxo-1,3,8-triaza-spiro[4.5]dec-1-ene-8-sulfonyl]-ethyl}-3,N,N-trimethyl-benzamide]  62%
13. Cc1cc(C(=O)N2CCC(O)(CF)CC2)cc(C)c1/C=C/S(=O)(=O)N1CCC2(CC1)N=C(c1ccc(Cl)c(OCC(F)(F)C(F)(F)F)c1)NC2=O [Compound 1270, 2-[4-chloro-3-(2,2,3,3,3-pentafluoro-propoxy)-phenyl]-8-{(E)-2-[4-(4-fluoromethyl-4-hydroxy-piperidine-1-carbonyl)-2,6-dimethyl-phenyl]-ethenesulfonyl}-1,3,8-triaza-spiro[4.5]dec-1-en-4-one]  61%
14. Cc1cc(N2C(=O)CNC2=O)cc(C)c1CCS(=O)(=O)N1CCC2(CC1)N=C(C1CCC(C)CC1)NC2=O (stereo not drawn) [Compound 883, 3-(3,5-dimethyl-4-{2-[2-(4-methyl-cyclohexyl)-4-oxo-1,3,8-triaza-spiro[4.5]dec-1-ene-8-sulfonyl]-ethyl}-phenyl)-imidazolidine-2,4-dione]  56%
15. O=C1NC(c2cccc(C(F)(F)F)c2)=NC12CCN(S(=O)(=O)CCc1ccc(NCCO)cc1C(F)(F)F)CC2 [Compound 286, 8-{2-[4-(2-hydroxy-ethylamino)-2-trifluoromethyl-phenyl]-ethanesulfonyl}-2-(3-trifluoromethyl-phenyl)-1,3,8-triaza-spiro[4.5]dec-1-en-4-one]  54%
16. Cc1cc(S(=O)(=O)NCCCO)ccc1/C=C/S(=O)(=O)N1CCC2(CC1)N=C(c1cccc(OC(F)(F)F)c1)NC2=O [Compound 224, N-(3-Hydroxy-propyl)-3-methyl-4-{(E)-2-[4-oxo-2-(3-trifluoromethoxy-phenyl)-1,3,8-triaza-spiro[4.5]dec-1-ene-8-sulfonyl]-vinyl}-benzenesulfonamide]  54%
17. CC(=O)NCCNC(=O)CNc1ccc(/C=C/S(=O)(=O)N2CCC3(CC2)N=C(C2CCCCC2)NC3=O)c(C(F)(F)F)c1 [Compound 498, N-(2-acetylamino-ethyl)-2-{4-[(E)-2-(2-cyclohexyl-4-oxo-1,3,8-triaza-spiro[4.5]dec-1-ene-8-sulfonyl)-vinyl]-3-trifluoromethyl-phenylamino}-acetamide]  53%
18. O=C1NC(C2CCCCC2)=NC12CCN(S(=O)(=O)/C=C/c1ccccc1C(F)(F)F)CC2 [Compound 179, 2-cyclohexyl-8-[(E)-2-(2-trifluoromethyl-phenyl)-ethenesulfonyl]-1,3,8-triaza-spiro[4.5]dec-1-en-4-one]  49%
19. CCCCCCCCCC1=NC2(CCN(S(=O)(=O)/C=C/c3c(C)cc(C(=O)O)cc3C)CC2)C(=O)N1 [Compound 628, 3,5-dimethyl-4-[(E)-2-(2-nonyl-4-oxo-1,3,8-triaza-spiro[4.5]dec-1-ene-8-sulfonyl)-vinyl]-benzoic acid]  48%
20. O=C1NC(c2cccc(C(F)(F)F)c2)=NC12CCN(S(=O)(=O)c1cccc(Cl)c1)CC2 [Compound 31, 8-(3-chloro-benzenesulfonyl)-2-(3-trifluoromethyl-phenyl)-1,3,8-triaza-spiro[4.5]dec-1-en-4-one]  41%
21. Cc1cc(C(=O)N2CC(F)(F)C(F)(F)C2)ccc1CCS(=O)(=O)N1CCC2(CC1)N=C(c1cccc(C(F)(F)F)c1)NC2=O [Compound 368, 8-{2-[2-methyl-4-(3,3,4,4-tetrafluoro-pyrrolidine-1-carbonyl)-phenyl]-ethanesulfonyl}-2-(3-trifluoromethyl-phenyl)-1,3,8-triaza-spiro[4.5]dec-1-en-4-one]  38%
22. Cc1cc(C(=O)N2CCN(C(=O)N(C)C)CC2)ccc1CCS(=O)(=O)N1CCC2(CC1)N=C(c1cccc(C(F)(F)F)c1)NC2=O [Compound 382, 4-(3-methyl-4-{2-[4-oxo-2-(3-trifluoromethyl-phenyl)-1,3,8-triaza-spiro[4.5]dec-1-ene-8-sulfonyl]-ethyl}-benzoyl)-piperazine-1-carboxylic acid dimethylamide]  36%
23. Cc1cc(C(=O)N(C)CCCN(C)C)cc(C)c1/C=C/S(=O)(=O)N1CCC2(CC1)N=C(c1cccc(C(F)(F)F)c1)NC2=O [Compound 391, N-(3-dimethylamino-propyl)-3,5,N-trimethyl-4-{(E)-2-[4-oxo-2-(3-trifluoromethyl-phenyl)-1,3,8-triaza-spiro[4.5]dec-1-ene-8-sulfonyl]-vinyl}-benzamide]  26%
24. Cc1cc(C(=O)N(C)C)ccc1CCS(=O)(=O)N1CCC2(CC1)N=C(c1nccn1C)NC2=O [Compound 122, 3,N,N-trimethyl-4-{2-[2-(1-methyl-1H-imidazol-2-yl)-4-oxo-1,3,8-triaza-spiro[4.5]dec-1-ene-8-sulfonyl]-ethyl}-benzamide]  3.0%
